According to patent US11253525B2, “Inhibitors of indoleamine 2,3-dioxygenase and methods of their use” (BRISTOL-MYERS SQUIBB COMPANY, priority 2018, dated 2022):

target: T1, indoleamine 2,3-dioxygenase (IDO) (Homo sapiens, UniProt P14902); test: HeLa cell-based indoleamine 2,3-dioxygenase (IDO) assay, kynurenine production; details: HeLa cells, IFNγ 25 ng/mL, 48 hour incubation; read-out: IDO Hela IC50
T1 construct: replaced with media containing IFNγ (#285-IF/CF, R&D Systems) at a final concentration of 25 ng/mL; endogenous in cells; host or cells: HeLa (ATCC CCL-2), IFN-gamma stimulated
Description: Assessment of Inhibitor Activity in HeLa Cell-Based Indoleamine 23-Dioxygenase (IDO) Assay
Cells were maintained in a humidified incubator at 37° C. in 5% CO2.
IDO activity was assessed as a function of kynurenine production as follows: HeLa cells were seeded in a 96-well culture plate at a density of 5,000 cells/well and allowed to equilibrate overnight. […] A serial dilution of each test compound was added to the cells in a total volume of 200 μL of culture medium. After a further 48 hour incubation, 170 μL of supernatant was transferred from each well to a fresh 96-well plate. 12.1 μL of 6.1N trichloroacetic acid (#T0699, Sigma-Aldrich) was added to each well and mixed, followed by incubation at 65° C. for 20 minutes to hydrolyze N-formylkynurenine, the product of indoleamine 2,3-dioxygenase, to kynurenine. The reaction mixture was then centrifuged for 10 mins at 500×g to sediment the precipitate. 100 μL of the supernatant was transferred from each well to a fresh 96-well plate. […] Kynurenine concentrations were determined by measuring absorbance at 480 nm and calibrating against an L-kynurenine (#K8625, Sigma-Aldrich) standard curve using a SPECTRAMAX® M2e microplate reader (Molecular Devices). The percentage activity at each inhibitor concentration was determined and IC50 values assessed using nonlinear regression.

T1 sequence (P14902 whole entry): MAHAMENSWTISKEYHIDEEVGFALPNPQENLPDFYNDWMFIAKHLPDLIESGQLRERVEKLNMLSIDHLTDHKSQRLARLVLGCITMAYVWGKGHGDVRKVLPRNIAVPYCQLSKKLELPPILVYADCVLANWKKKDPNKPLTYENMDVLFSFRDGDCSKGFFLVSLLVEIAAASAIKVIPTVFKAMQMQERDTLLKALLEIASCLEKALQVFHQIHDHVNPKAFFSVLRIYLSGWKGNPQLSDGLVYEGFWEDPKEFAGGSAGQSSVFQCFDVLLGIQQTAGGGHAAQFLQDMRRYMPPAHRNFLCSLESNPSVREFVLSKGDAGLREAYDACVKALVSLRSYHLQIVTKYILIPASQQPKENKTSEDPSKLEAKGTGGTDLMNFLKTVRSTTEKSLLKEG

First: CC[C@H](CC(=O)O)c1ccc([C@@H](CC)N2CCOCC2)c(Nc2ccc(COC)nc2)c1 (relative stereo) [Example 121, (R)-3-(3-((6-(methoxymethyl)pyridin-3-yl)amino)-4-((R)-1-morpholinopropyl)phenyl)pentanoic acid]
Second: CCO[C@H](c1ccc([C@@H](COC)CC(=O)O)cc1NC(=O)Nc1ccc(Cl)cc1F)C(F)(F)F (single isomer, unassigned) [Example 61]
The IC50 of the first is 6.3-fold lower: 30 nM for the first, 190 nM for the second. The first is the more potent here.

`CC[C@@H](CC(=O)O)c1ccc([C@@H](OC)C(F)(F)F)c(Nc2cnc(C(F)(F)F)nc2)c1` (single isomer, unassigned) [Example 88] and `CCOc1ncc(Nc2cc([C@@H](CC)CC(=O)O)ccc2[C@H](CC)N2CCOCC2)cn1` (single isomer, unassigned) [Example 118-4] are the same in IC50: 10 nM for the first, 10 nM for the second.

Going from `CCO[C@@H](c1ccc([C@@H](CC)CC(=O)O)cc1Nc1cnc(COC)nc1)C(F)(F)F` (single isomer, unassigned) [Example 49] to `CCO[C@@H](c1ccc([C@H](CC)CC(=O)O)cc1Nc1cnc(OC)nc1)C(F)(F)F` (single isomer, unassigned) [Example 33], the IC50 falls from 440 nM to 30 nM (15-fold). The second is the more potent here.

First: CC[C@@H](CC(=O)O)c1ccc([C@@H](OC)C(F)(F)F)c(Nc2cnc(C)nc2)c1 (single isomer, unassigned) [Example 86]
Second: CC[C@H](CC(=O)O)c1ccc([C@H](OC)C(F)(F)F)c(Nc2cnc(C)nc2)c1 (single isomer, unassigned) [Example 94]
The IC50 of the first is 6.4-fold higher: 450 nM for the first, 70 nM for the second.

First: CCO[C@@H](c1ccc([C@@H](COC)CC(=O)O)cc1Nc1cnc(OC)nc1)C(F)(F)F (single isomer, unassigned) [Example 76]
Second: CCO[C@@H](c1ccc([C@@H](COC)CC(=O)O)cc1NC(=O)Nc1ccc(Cl)cc1F)C(F)(F)F (single isomer, unassigned) [Example 75]
The IC50 of the first is 18-fold higher: 700 nM for the first, 40 nM for the second. The second is the more potent here.

Compared with `CCc1ncc(Nc2cc([C@H](CC)CC(=O)O)ccc2[C@H](CC)C2CCOCC2)cn1` (single isomer, unassigned) [Example 128], `CCO[C@H](c1ccc([C@@H](CC)CC(=O)O)cc1NC(=O)Nc1ccc(C)cc1)C(F)(F)F` (single isomer, unassigned) [Example 19] is 4.8-fold higher in IC50: 120 nM for the first, 580 nM for the second.

First: CC[C@H](c1ccc([C@@H](COC)CC(=O)O)cc1Nc1ccc(Cl)cc1)N1CCOCC1 (relative stereo) [Example 110, (S)-3-(3-((4-chlorophenyl)amino)-4-((R)-1-morpholinopropyl)phenyl)-4-methoxybutanoic acid]
Second: CCOc1ncc(Nc2cc([C@H](CC)CC(=O)O)ccc2[C@@H](OC)C(F)(F)F)cn1 (single isomer, unassigned) [Example 91]
The IC50 of the first is 13-fold higher: 380 nM for the first, 30 nM for the second.

`CCO[C@H](c1ccc([C@H](COC)CC(=O)O)cc1Nc1ccc(Cl)cc1)C(F)(F)F` (single isomer, unassigned) [Example 58] and `CCO[C@@H](c1ccc([C@@H](CC)CC(=O)O)cc1Nc1ccc(F)cc1)C(F)(F)F` (single isomer, unassigned) [Example 51] are the same in IC50: 20 nM for the first, 20 nM for the second.

Going from `CC[C@@H](CC(=O)O)c1ccc([C@@H](CC)N2CCOCC2)c(Nc2ccc(Cl)cc2)c1` (single isomer, unassigned) [Example 132] to `CCO[C@H](c1ccc([C@@H](COC)CC(=O)O)cc1Nc1cnc(C)nc1)C(F)(F)F` (single isomer, unassigned) [Example 67], the IC50 rises from 70 nM to 410 nM (5.9-fold).

Compared with `CC[C@@H](c1ccc([C@@H](COC)CC(=O)O)cc1Nc1ccc(F)cc1)N1CCOCC1` (single isomer, unassigned) [Example 106], `CC[C@@H](CC(=O)O)c1ccc([C@@H](CC)N2CCOCC2)c(Nc2ccc(C#N)cc2)c1` (single isomer, unassigned) [Example 124] is 7-fold higher in IC50: 10 nM for the first, 70 nM for the second.

First: CC[C@H](CC(=O)O)c1ccc([C@@H](OC)C(F)(F)F)c(Nc2cnc(C)nc2)c1 (relative stereo) [Example 90, (R)-3-(3-((2-methylpyrimidin-5-yl)amino)-4-((R)-2,2,2-trifluoro-1-methoxyethyl)phenyl)pentanoic acid]
Second: CC[C@@H](CC(=O)O)c1ccc([C@H](OC)C(F)(F)F)c(Nc2cnc(C(F)(F)F)nc2)c1 (single isomer, unassigned) [Example 100]
The IC50 of the first is 15-fold higher: 150 nM for the first, 10 nM for the second.

First: CCOc1ncc(Nc2cc([C@@H](CC)CC(=O)O)ccc2[C@H](OCC)C(F)(F)F)cn1 (single isomer, unassigned) [Example 45]
Second: (S)-3-(3-(3-(4-cyano-3-fluorophenyl)ureido)-4-((R)-1-ethoxy-2,2,2-trifluoroethyl)phenyl)-4-methoxybutanoic acid [Example 63]
The IC50 of the first is 1.5-fold higher: 30 nM for the first, 20 nM for the second.

Going from `CCO[C@H](c1ccc([C@@H](CC)CC(=O)O)cc1NC(=O)Nc1ccc(Cl)cc1F)C(F)(F)F` (single isomer, unassigned) [Example 20] to `CCO[C@H](c1ccc([C@@H](CC)CC(=O)O)cc1Nc1cnc(CC)nc1)C(F)(F)F` (single isomer, unassigned) [Example 29], the IC50 rises from 10 nM to 20 nM (2-fold). The first is the more potent here.

Going from `CCO[C@H](c1ccc([C@H](CC)CC(=O)O)cc1Nc1cnc(CC)nc1)C(F)(F)F` (relative stereo) [Example 18, (R)-3-(4-((R)-1-ethoxy-2,2,2-trifluoroethyl)-3-((2-ethylpyrimidin-5-yl)amino)phenyl)pentanoic acid] to `CCOc1ncc(Nc2cc([C@@H](CC)CC(=O)O)ccc2[C@@H](OCC)C(F)(F)F)cn1` (relative stereo) [Example 24, (S)-3-(4-((R)-1-ethoxy-2,2,2-trifluoroethyl)-3-((2-ethoxypyrimidin-5-yl)amino)phenyl)pentanoic acid], the IC50 falls from 40 nM to 10 nM (4-fold). The second is the more potent here.

First: CCO[C@@H](c1ccc([C@H](CC)CC(=O)O)cc1Nc1cnc(C)nc1)C(F)(F)F (single isomer, unassigned) [Example 39]
Second: CCO[C@@H](c1ccc([C@H](COC)CC(=O)O)cc1Nc1ccc(C#N)c(F)c1)C(F)(F)F (relative stereo) [Example 70, (R)-3-(3-((4-cyano-3-fluorophenyl)amino)-4-((S)-1-ethoxy-2,2,2-trifluoroethyl)phenyl)-4-methoxybutanoic acid]
The IC50 of the first is 3.3-fold higher: 100 nM for the first, 30 nM for the second.

Molecule `CCO[C@H](c1ccc([C@H](COC)CC(=O)O)cc1NC(=O)Nc1ccc(Cl)cc1F)C(F)(F)F` (single isomer, unassigned) [Example 53] has an IC50 of 40 nM.

same assay, conditions: HeLa cells, IFNγ 25 ng/mL, 48 hour incubation; read-out: IDO Hela IC50 class (A < 50, B < 250, C < 2000)

`CC[C@H](CC(=O)O)c1ccc([C@@H](OC)C(F)(F)F)c(Nc2ccc(Cl)cc2)c1` (single isomer, unassigned) [Example 83-2] and `CC[C@H](CC(=O)O)c1ccc([C@@H](CC)N2CCOCC2)c(Nc2ccc(Cl)cc2)c1` (relative stereo) [Example 123, (R)-3-(3-((4-chlorophenyl)amino)-4-((R)-1-morpholinopropyl)phenyl)pentanoic acid] cannot be ordered by IC50: under 50 nM for the first, under 50 nM for the second.

First: CCOc1ncc(Nc2cc([C@@H](COC)CC(=O)O)ccc2[C@@H](CC)N2CCOCC2)cn1 (single isomer, unassigned) [Example 108]
Second: CCO[C@H](c1ccc([C@H](CC)CC(=O)O)cc1Nc1ccc(C#N)cc1)C(F)(F)F (single isomer, unassigned) [Example 15]
The IC50 of the first is higher: 250 to 2000 nM for the first, under 50 nM for the second. The second is the more potent here.

First: CC[C@@H](CC(=O)O)c1ccc([C@@H](CC)N2CCOCC2)c(Nc2ccc(OC(F)F)cn2)c1 (relative stereo) [Example 133, (S)-3-(3-((5-(difluoromethoxy)pyridin-2-yl)amino)-4-((R)-1-morpholinopropyl)phenyl)pentanoic acid]
Second: CC[C@H](c1ccc([C@@H](COC)CC(=O)O)cc1Nc1ccc(Cl)cc1)N1CCOCC1 (relative stereo) [Example 110, (S)-3-(3-((4-chlorophenyl)amino)-4-((R)-1-morpholinopropyl)phenyl)-4-methoxybutanoic acid]
The IC50 of the first is higher: 250 to 2000 nM for the first, 50 to 250 nM for the second.

`CC[C@H](CC(=O)O)c1ccc([C@@H](CC)C2CCOCC2)c(Nc2ccc(COC)nc2)c1` (single isomer, unassigned) [Example 127] and `CCO[C@@H](c1ccc([C@@H](CC)CC(=O)O)cc1Nc1ccc(F)cc1)C(F)(F)F` (single isomer, unassigned) [Example 51] cannot be ordered by IC50: under 50 nM for the first, under 50 nM for the second.

First: CC[C@@H](CC(=O)O)c1ccc([C@H](OC)C(F)(F)F)c(Nc2ccc(Cl)cc2)c1 (single isomer, unassigned) [Example 84-2]
Second: CCO[C@H](c1ccc([C@H](COC)CC(=O)O)cc1Nc1ncc(F)cn1)C(F)(F)F (single isomer, unassigned) [Example 56]
The IC50 of the first is lower: under 50 nM for the first, 250 to 2000 nM for the second.

`CCOc1ncc(Nc2cc([C@H](CC)CC(=O)O)ccc2[C@H](CC)C2CCOCC2)cn1` (single isomer, unassigned) [Example 125-2] and `CCO[C@H](c1ccc([C@@H](COC)CC(=O)O)cc1Nc1ccc(Cl)cc1)C(F)(F)F` (single isomer, unassigned) [Example 66] cannot be ordered by IC50: under 50 nM for the first, under 50 nM for the second.

`CCO[C@H](c1ccc([C@@H](CC)CC(=O)O)cc1Nc1ccc(C#N)cc1)C(F)(F)F` (single isomer, unassigned) [Example 26] and “(S)-3-(3-(3-(4-cyano-3-fluorophenyl)ureido)-4-((R)-1-ethoxy-2,2,2-trifluoroethyl)phenyl)-4-methoxybutanoic acid [Example 63]” cannot be ordered by IC50: under 50 nM for the first, under 50 nM for the second.

First: CC[C@H](c1ccc([C@@H](COC)CC(=O)O)cc1Nc1ccc(C#N)cc1)N1CCOCC1 (single isomer, unassigned) [Example 101-2]
Second: (S)-3-(4-((S)-1-ethoxy-2,2,2-trifluoroethyl)-3-((4-fluorophenyl)amino)phenyl)pentanoic acid [Example 48]
The IC50 of the first is higher: 250 to 2000 nM for the first, under 50 nM for the second. The second is the more potent here.
